Assay results reported in patent publication US8202910B2 (Sequella, Inc., priority 2006, dated 2012).
In brackets after ≈: the same amount, converted by molar mass. Like-named read-outs stand apart in the source and are kept apart here.

Key:
MDR Strain TN576 = assay: microbe, parasite or virus in culture; format: cell-based, Mycobacterium tuberculosis; conditions: for Drug Resistance of MDR Strain: 576 W1; for MIC: Mycobacterium tuberculosis
MDR strain TN3086 (3806) = assay: microbe, parasite or virus in culture; format: cell-based, Mycobacterium tuberculosis; conditions: for Drug Resistance of MDR Strain: 3806 W1; for MIC: Mycobacterium tuberculosis
MDR strain TN587 = assay: microbe, parasite or virus in culture; format: cell-based, Mycobacterium tuberculosis; conditions: for Drug Resistance of MDR Strain: 587 W; for MIC: Mycobacterium tuberculosis
EMB-resistant strain = assay: microbe, parasite or virus in culture; format: cell-based, M. tuberculosis; conditions: Mycobacterium tuberculosis
[1] = system: M. tuberculosis clinical isolates (drug susceptible and drug resistant); format: cell-based; conditions: more than 30 clinical isolates
INH-resistant MTB strain = assay: microbe, parasite or virus in culture; format: cell-based, M. tuberculosis; conditions: Mycobacterium tuberculosis

Row | Compound | Drug Resistance of MDR Strain (MDR Strain TN576) | Drug Resistance of MDR Strain (MDR strain TN3086 (3806)) | Drug Resistance of MDR Strain (MDR strain TN587) | MIC (MDR Strain TN576; strain 576) | MIC (MDR strain TN3086 (3806); strain 3806) | MIC (MDR strain TN587; TN587, strain 587) | also measured
1 | NC[C@H]1O[C@H](O[C@H]2[C@H](O)[C@@H](O[C@H]3O[C@H](CO)[C@@H](O)[C@H](N)[C@H]3O)[C@H](N)C[C@@H]2N)[C@H](O)[C@@H](O)[C@@H]1O [Kan, Kanamycin] | R | R | R | – | – | – | –
2 | CC(C)=CCC/C(C)=C/CNCCNC1C2CC3CC(C2)CC1C3 (stereo not drawn) [Compound 109, N-Geranyl-N′-(2-adamanthyl)ethane-1,2-diamine] | – | – | – | 0.2 µg/mL | 0.1 µg/mL | 0.2 µg/mL | MIC (EMB-resistant strain): 0.5 µg/mL (≈ 1.51 µM); MIC range [1]: 0.16 to 0.64 µg/mL; MIC (INH-resistant MTB strain): 0.25 µg/mL (≈ 0.756 µM)
3 | NNC(=O)c1ccncc1 [INH, Isoniazid] | R | R | R | – | – | – | –
4 | N[C@@H]1CON=C1O [Cyc, Cycloserine] | S | – | S | – | – | – | –
5 | CC1(C)CC2CC(C)(CN2CCNC[C@@H]2CCC3C[C@@H]2C3(C)C)C1 [MP 116] | – | – | – | 3.15 µg/mL | 3.15 µg/mL | 6.25 µg/mL | –
6 | C[C@@H]1C2C[C@@H](C[C@H]1NCCNC[C@@H]1CCC3C[C@@H]1C3(C)C)C2(C)C [MP 117] | – | – | – | 3.15 µg/mL | 3.15 µg/mL | 3.15 µg/mL | –
7 | Capreomycin | R | – | S | – | – | – | –
8 | CCc1cc(C(N)=S)ccn1 [Eth, Ethionamide] | R | S | S | – | – | – | –
9 | CO[C@H]1/C=C/O[C@@]2(C)Oc3c(C)c(O)c4c(O)c(c(/C=N/N5CCN(C)CC5)c(O)c4c3C2=O)NC(=O)/C(C)=C\C=C\[C@H](C)[C@H](O)[C@@H](C)[C@@H](O)[C@@H](C)[C@H](OC(C)=O)[C@@H]1C [RIF, Rifampicin] | R | R | R | – | – | – | –
10 | C[C@@H]1[C@H]2C[C@@H](C[C@H]1NCCNC1CCCCCCC1)C2(C)C [Compound 59, N-(Cyclooctyl)-N′-(1R, 2R, 3R, 5S)-(−)-isopinocampheylethane-1,2-diamine] | – | – | – | 0.1 µg/mL | 0.05 µg/mL | 0.05 µg/mL | –
11 | CC[C@@H](CO)NCCN[C@@H](CC)CO [EMB, Ethambutol, reference compound] | R | R | R | – | – | – | MIC (MDR Strain TN576; read-out: MIC of ethambutol, MDR strain, TN576): 12.5 to 25 µM; MIC (MDR strain TN3086 (3806); read-out: MIC of ethambutol, MDR strain, TN3086): 12.5 to 25 µM; MIC (MDR strain TN587; TN587, read-out: MIC of ethambutol, MDR strain, TN587): 12.5 to 25 µM
12 | [H]/N=C(/N)N[C@H]1[C@H](O)[C@@H](O)[C@H](O[C@@H]2O[C@@H](C)[C@](O)(C=O)[C@H]2O[C@@H]2O[C@@H](CO)[C@H](O)[C@@H](O)[C@@H]2NC)[C@@H](N/C(N)=N\[H])[C@@H]1O [SM, Streptomycin] | R | R | R | – | – | – | –
13 | O=C(O)c1cn(C2CC2)c2cc(N3CCNCC3)c(F)cc2c1=O [Cip, Ciprofloxacin] | S | – | S | – | – | – | –
14 | CC1(C)C2CCC(CNCCNCC(c3ccccc3)c3ccccc3)[C@@H]1C2 (stereo partly drawn) [RL 241] | – | – | – | 1.5 µg/mL | 1.5 µg/mL | 1.5 µg/mL | –
